Laboratory results reported in ChEMBL document CHEMBL1150480, “Photoreactive CMP-sialic acids as substrates for 2,6-sialyltransferase” (Bioorg Med Chem Lett, 1995).

What was measured:
[1] = Evaluation of ratio of Michaelis-Menten constant to that of kinetic constant against 2,6-sialyltransferase in presence of compound
[2] = target: T1, Beta-galactoside alpha-2,6-sialyltransferase 1 (Rattus norvegicus) (UniProt P13721); assay: Evaluation of kinetic constant for rat liver GaI-beta-1,4GIcNAc alpha2,6-sialyltransferase in presence of compound
T1 sequence (whole entry): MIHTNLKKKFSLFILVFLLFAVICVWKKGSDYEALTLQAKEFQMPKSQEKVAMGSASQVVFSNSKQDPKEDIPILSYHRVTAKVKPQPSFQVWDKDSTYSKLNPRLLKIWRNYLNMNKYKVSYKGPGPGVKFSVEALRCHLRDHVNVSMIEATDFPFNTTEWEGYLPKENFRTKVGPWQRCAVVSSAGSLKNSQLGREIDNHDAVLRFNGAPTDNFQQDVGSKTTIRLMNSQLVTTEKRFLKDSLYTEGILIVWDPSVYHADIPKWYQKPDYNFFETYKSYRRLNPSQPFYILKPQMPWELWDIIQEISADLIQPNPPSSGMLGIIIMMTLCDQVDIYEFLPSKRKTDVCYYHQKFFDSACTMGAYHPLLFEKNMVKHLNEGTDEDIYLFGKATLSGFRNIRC

[3] = compound: [N-]=[N+]=Nc1ccc(C(=O)NCC(=O)NC2C(O)CC(OP(=O)(O)OC[C@H]3OC(n4ccc(N)nc4=O)[C@H](O)[C@@H]3O)(C(=O)O)OC2[C@H](O)[C@H](O)CO)cc1; assay: (§1) Evaluation of Michaelis-Menten constant of rat liver GaI-beta-1,4GIcNAc alpha2,6-sialyltransferase in presence of compound
[4] = compound: NCC(=O)NC1C(O)CC(OP(=O)(O)OC[C@H]2OC(n3ccc(N)nc3=O)[C@H](O)[C@@H]2O)(C(=O)O)OC1[C@H](O)C(O)CO; assay: as §1
[5] = compound: CC(=O)NC1C(O)CC(OP(=O)(O)OC[C@H]2OC(n3ccc(N)nc3=O)[C@H](O)[C@@H]2O)(C(=O)O)OC1[C@H](O)[C@H](O)CNC(=O)c1ccc(N=[N+]=[N-])cc1O; assay: as §1
[6] = compound: CC(=O)NC1C(O)CC(OP(=O)(O)OC[C@H]2OC(n3ccc(N)nc3=O)[C@H](O)[C@@H]2O)(C(=O)O)OC1[C@H](O)[C@H](O)CNC(=O)c1ccc(C(=O)c2ccccc2)cc1; assay: as §1
[7] = compound: CC(=O)NC1C(O)CC(OP(=O)(O)OC[C@H]2OC(n3ccc(N)nc3=O)[C@H](O)[C@@H]2O)(C(=O)O)OC1[C@H](O)[C@H](O)CNC(=O)c1ccc(N=[N+]=[N-])cc1; assay: as §1

Ratio [1]	Relative Vmax [2]	Molecule	Km [3] [µM]	Km [4] [µM]	Km [5] [µM]	Km [6] [µM]	Km [7] [µM]
22.2	1	NCC(=O)NC1C(O)CC(OP(=O)(O)OC[C@H]2OC(n3ccc(N)nc3=O)[C@H](O)[C@@H]2O)(C(=O)O)OC1[C@H](O)C(O)CO (stereo not given in full)					
13.6	0.9	CC(=O)NC1C(O)CC(OP(=O)(O)OC[C@H]2OC(n3ccc(N)nc3=O)[C@H](O)[C@@H]2O)(C(=O)O)OC1[C@H](O)[C@H](O)CNC(=O)c1ccc(N=[N+]=[N-])cc1 (stereo not given in full)					
11.8	0.8	CC(=O)NC1C(O)CC(OP(=O)(O)OC[C@H]2OC(n3ccc(N)nc3=O)[C@H](O)[C@@H]2O)(C(=O)O)OC1[C@H](O)[C@H](O)CNC(=O)c1ccc(C(=O)c2ccccc2)cc1 (stereo not given in full)					
3.1	0.5	[N-]=[N+]=Nc1ccc(C(=O)NCC(=O)NC2C(O)CC(OP(=O)(O)OC[C@H]3OC(n4ccc(N)nc4=O)[C@H](O)[C@@H]3O)(C(=O)O)OC2[C@H](O)[C@H](O)CO)cc1 (stereo not given in full)					
13.8	1.1	CC(=O)NC1C(O)CC(OP(=O)(O)OC[C@H]2OC(n3ccc(N)nc3=O)[C@H](O)[C@@H]2O)(C(=O)O)OC1[C@H](O)[C@H](O)CNC(=O)c1ccc(N=[N+]=[N-])cc1O (stereo not given in full)					
		Beta-galactoside alpha-2,6-sialyltransferase 1 (Rattus norvegicus), P13721 (protein) MIHTNLKKKFSLFILVFLLFAVICVWKKGSDYEALTLQAKEFQMPKSQEKVAMGSASQVVFSNSKQDPKEDIPILSYHRVTAKVKPQPSFQVWDKDSTYSKLNPRLLKIWRNYLNMNKYKVSYKGPGPGVKFSVEALRCHLRDHVNVSMIEATDFPFNTTEWEGYLPKENFRTKVGPWQRCAVVSSAGSLKNSQLGREIDNHDAVLRFNGAPTDNFQQDVGSKTTIRLMNSQLVTTEKRFLKDSLYTEGILIVWDPSVYHADIPKWYQKPDYNFFETYKSYRRLNPSQPFYILKPQMPWELWDIIQEISADLIQPNPPSSGMLGIIIMMTLCDQVDIYEFLPSKRKTDVCYYHQKFFDSACTMGAYHPLLFEKNMVKHLNEGTDEDIYLFGKATLSGFRNIRC	161	45	80	68	66
